Three molecules from ChEMBL document CHEMBL5034035, “Discovery of an Oxycyclohexyl Acid Lysophosphatidic Acid Receptor 1 (LPA1) Antagonist BMS-986278 for the Treatment of Pulmonary Fibrotic Diseases” (J Med Chem, 2021) can be followed below.

Series [1] is described as follows: Half life in human liver microsomes at 10 uM measured after 120 mins. Type of series: ADME, Microsome.
A further series has as its target T1, Cytochrome P450 1A2 (Homo sapiens, UniProt P05177).
T1 sequence (P05177 whole entry): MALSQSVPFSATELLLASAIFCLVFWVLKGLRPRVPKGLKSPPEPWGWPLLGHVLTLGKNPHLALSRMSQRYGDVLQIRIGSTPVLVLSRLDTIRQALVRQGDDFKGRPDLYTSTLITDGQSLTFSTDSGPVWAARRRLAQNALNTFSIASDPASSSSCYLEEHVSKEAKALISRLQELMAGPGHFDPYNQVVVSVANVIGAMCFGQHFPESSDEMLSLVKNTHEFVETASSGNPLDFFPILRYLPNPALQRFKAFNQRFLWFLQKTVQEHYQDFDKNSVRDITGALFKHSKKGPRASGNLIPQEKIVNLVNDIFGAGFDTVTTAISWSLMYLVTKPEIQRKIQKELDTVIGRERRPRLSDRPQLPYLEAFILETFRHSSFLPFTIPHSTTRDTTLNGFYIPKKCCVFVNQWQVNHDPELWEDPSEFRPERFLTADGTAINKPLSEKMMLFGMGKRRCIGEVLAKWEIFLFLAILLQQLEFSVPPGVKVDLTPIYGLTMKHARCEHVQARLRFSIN
The series can be described thus: Inhibition of CYP1A2 (unknown origin). Type of series: ADME.

Another series addresses T2, Cytochrome P450 2C8 (Homo sapiens, UniProt P10632).
T2 sequence (P10632 whole entry): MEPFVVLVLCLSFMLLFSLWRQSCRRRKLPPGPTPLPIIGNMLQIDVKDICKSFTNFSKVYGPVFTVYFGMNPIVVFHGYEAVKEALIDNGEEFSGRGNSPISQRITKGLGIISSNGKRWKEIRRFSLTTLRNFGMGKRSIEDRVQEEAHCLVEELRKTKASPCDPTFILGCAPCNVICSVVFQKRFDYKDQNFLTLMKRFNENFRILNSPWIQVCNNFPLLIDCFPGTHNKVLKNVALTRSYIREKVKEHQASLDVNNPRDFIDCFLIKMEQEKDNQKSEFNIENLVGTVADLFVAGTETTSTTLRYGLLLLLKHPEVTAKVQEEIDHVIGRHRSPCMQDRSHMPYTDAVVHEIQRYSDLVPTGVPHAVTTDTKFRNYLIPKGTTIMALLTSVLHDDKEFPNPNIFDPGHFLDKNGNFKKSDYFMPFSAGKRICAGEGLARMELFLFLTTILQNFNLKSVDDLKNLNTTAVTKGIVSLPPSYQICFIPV
The series can be described thus: Inhibition of CYP2C8 (unknown origin). It is filed as ADME.

The next series deals with Cytochrome P450 3A4 (Homo sapiens, UniProt P08684). As to the kind of experiment: Inhibition of CYP3A4 (unknown origin). Type of series: ADME.
Chain of Cytochrome P450 3A4 (P08684 whole entry): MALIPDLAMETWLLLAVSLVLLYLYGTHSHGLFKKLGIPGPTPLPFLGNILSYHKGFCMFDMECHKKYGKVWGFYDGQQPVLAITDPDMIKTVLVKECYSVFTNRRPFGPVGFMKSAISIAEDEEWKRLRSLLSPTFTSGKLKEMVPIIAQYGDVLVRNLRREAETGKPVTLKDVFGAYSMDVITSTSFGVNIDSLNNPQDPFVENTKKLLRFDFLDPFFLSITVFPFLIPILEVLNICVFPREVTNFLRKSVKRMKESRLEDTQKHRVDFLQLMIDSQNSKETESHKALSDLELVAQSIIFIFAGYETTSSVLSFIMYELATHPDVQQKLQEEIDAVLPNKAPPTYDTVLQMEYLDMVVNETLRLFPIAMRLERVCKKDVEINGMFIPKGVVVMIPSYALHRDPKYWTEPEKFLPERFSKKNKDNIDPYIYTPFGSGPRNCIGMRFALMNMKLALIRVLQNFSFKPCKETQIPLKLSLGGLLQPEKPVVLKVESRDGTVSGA
In the next series the target is CYP3A4 (Homo sapiens, UniProt P08684). The series can be described thus: Induction of CYP3A4 in human hepatocytes. Type of series: ADME, cell-based, Hepatocyte.
Chain of CYP3A4 (P08684 whole entry): as above
Series [2] can be described thus: Protein binding in human plasma assessed as free fraction at 3 mg/kg, po or 1 mg/kg, iv measured up to 24 hrs by LC-MS/MS analysis. Type of series: ADME, organism-based.
In the next series the target is T3, Cytochrome P450 2B6 (Homo sapiens, UniProt P20813).
T3 sequence (P20813 whole entry): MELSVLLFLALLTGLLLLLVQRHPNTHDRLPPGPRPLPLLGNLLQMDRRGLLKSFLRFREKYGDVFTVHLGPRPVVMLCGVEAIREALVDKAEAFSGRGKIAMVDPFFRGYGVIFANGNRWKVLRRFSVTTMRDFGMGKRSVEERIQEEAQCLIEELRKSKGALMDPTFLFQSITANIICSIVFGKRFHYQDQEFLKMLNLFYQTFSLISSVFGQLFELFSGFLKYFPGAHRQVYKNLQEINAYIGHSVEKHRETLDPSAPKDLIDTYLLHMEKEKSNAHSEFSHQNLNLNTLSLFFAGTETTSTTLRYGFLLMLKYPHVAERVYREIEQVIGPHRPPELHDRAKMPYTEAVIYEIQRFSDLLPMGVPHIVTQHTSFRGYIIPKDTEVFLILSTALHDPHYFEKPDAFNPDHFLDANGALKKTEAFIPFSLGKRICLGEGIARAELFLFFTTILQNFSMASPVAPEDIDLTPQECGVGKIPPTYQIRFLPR
As to the kind of experiment: Inhibition of CYP2B6 (unknown origin). Type of series: ADME.

For series [3], the target named is T4, Solute carrier organic anion transporter family member 1B1 (Homo sapiens, UniProt Q9Y6L6).
T4 sequence (Q9Y6L6 whole entry): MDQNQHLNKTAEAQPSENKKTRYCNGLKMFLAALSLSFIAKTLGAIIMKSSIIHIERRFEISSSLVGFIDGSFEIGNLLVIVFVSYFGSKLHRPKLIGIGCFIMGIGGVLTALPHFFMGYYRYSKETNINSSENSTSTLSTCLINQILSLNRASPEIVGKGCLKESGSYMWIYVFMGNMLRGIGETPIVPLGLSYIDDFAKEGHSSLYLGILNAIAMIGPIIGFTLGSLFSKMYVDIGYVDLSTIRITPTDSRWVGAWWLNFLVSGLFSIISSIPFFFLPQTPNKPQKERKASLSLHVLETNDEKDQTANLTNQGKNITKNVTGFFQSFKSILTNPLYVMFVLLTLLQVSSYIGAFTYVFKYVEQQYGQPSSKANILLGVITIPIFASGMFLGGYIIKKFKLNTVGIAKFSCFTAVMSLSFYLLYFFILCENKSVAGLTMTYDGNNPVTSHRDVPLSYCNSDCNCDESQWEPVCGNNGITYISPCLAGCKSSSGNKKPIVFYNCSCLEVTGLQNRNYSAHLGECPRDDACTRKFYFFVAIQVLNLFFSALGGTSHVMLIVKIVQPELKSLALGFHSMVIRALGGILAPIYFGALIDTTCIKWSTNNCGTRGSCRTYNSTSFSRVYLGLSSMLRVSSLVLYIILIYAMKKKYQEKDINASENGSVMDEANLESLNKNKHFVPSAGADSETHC
The series can be described thus: Inhibition of OATP1B1 (unknown origin). Type of series: ADME.

Series [4] can be described thus: Protein binding in Sprague-Dawley rat plasma assessed as free fraction at 3 mg/kg, po or 1 mg/kg, iv measured up to 24 hrs by LC-MS/MS analysis. It is filed as ADME, organism-based.

The half-life is the time needed for the level to fall by half in the phase considered. A higher half-life goes with slow decline. As a reminder, the IC50 is the concentration at which inhibition is half-maximal. The low end stands for inhibition by little substance, the high end for a need for much substance. What is called fraction unbound is the share of the substance not bound to proteins or other matrix. In series [1], `Cc1nc(-c2nnn(C)c2COC(=O)N(C)CC2CCC2)ccc1O[C@H]1CCC[C@H](C(=O)O)C1` showed a half-life at 10 µM above 2 h. Also, the IC50 at Cytochrome P450 1A2 was above 40 µM; on Cytochrome P450 2C8, above 40 µM; against Cytochrome P450 3A4, above 40 µM; at CYP3A4 it was above 50 µM; at Cytochrome P450 2B6, above 40 µM; in series [3], 1.5 µM. Also, the free fraction (fraction unbound) at 24 h stood at 0.033 in series [2] and 0.053 in [4].
As for `CCCN(C)C(=O)OCc1c(-c2ccc(O[C@H]3CCC[C@H](C(=O)O)C3)c(C)n2)nnn1C` [ADMILPARANT], the half-life at 10 µM in [1] was above 2 h. Moreover, the IC50 is above 40 µM at Cytochrome P450 1A2; above 40 µM against Cytochrome P450 2C8; above 40 µM against Cytochrome P450 3A4; above 50 µM on CYP3A4; above 40 µM against Cytochrome P450 2B6; 36 µM in [3]. The fraction unbound at 24 h came out at 0.056 in [2] and 0.126 in [4].
For `Cc1noc(-c2ccc(-c3ccc(C4(C(=O)O)CC4)cc3)cc2)c1NC(=O)O[C@H](C)c1ccccc1` [BMS-986020], the half-life at 10 µM in series [1] is 1.38 h. Further, the concentration for half-maximal inhibition (IC50) on Cytochrome P450 1A2 is above 50 µM; against Cytochrome P450 2C8 it was 3.5 µM; at Cytochrome P450 3A4, above 50 µM; against CYP3A4, above 50 µM; against Cytochrome P450 2B6 it was above 50 µM; in [3], 0.17 µM. In addition, the unbound share (fraction unbound) at 24 h in series [2] and in [4] was 0.002 in each case.
